Biological target: Galectin-7 (Homo sapiens, UniProt P47929)
Test: Binding affinity to human Gal-7 assessed as dissociation constant by fluorescence polarization assay

Galectin-7, sequence (P47929 whole entry): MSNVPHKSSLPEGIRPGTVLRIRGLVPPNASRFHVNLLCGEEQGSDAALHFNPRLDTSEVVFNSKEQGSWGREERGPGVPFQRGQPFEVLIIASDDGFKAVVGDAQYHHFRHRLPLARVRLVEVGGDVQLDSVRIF

Work on `CS[C@@H]1O[C@H](CO)[C@H](O)[C@H](NC(=O)c2ccc(C)cc2)[C@H]1OP(=O)(O)OCc1ccccc1` yielded a Kd of 450 µM.
With `COP(=O)(O)O[C@@H]1[C@@H](NC(=O)c2ccc(C)cc2)[C@@H](O)[C@@H](CO)O[C@H]1SC` the Kd was 240 µM.

Reference: ChEMBL document CHEMBL5104122, “Synthesis and application of phosphorylated saccharides in researching carbohydrate-based drugs” (Bioorg Med Chem, 2022)
